Oligonucleotides are given in HELM: sugar(base)linkage, 5' to 3'; d 2'-deoxyribose, r ribose, m 2'-O-methylribose, p phosphate. ss, as = sense and antisense strand
target: SOST; experiment: reporter assay of Huesken 2005; conditions: siRNA
Further: test concentration or dose not given here.

First: RNA1{r(C)p.r(C)p.r(G)p.r(C)p.r(G)p.r(A)p.r(G)p.r(C)p.r(U)p.r(G)p.r(C)p.r(A)p.r(C)p.r(U)p.r(U)p.r(C)p.r(A)p.r(C)p.r(C)p.d(T)p.d(T)}|RNA2{r(G)p.r(G)p.r(U)p.r(G)p.r(A)p.r(A)p.r(G)p.r(U)p.r(G)p.r(C)p.r(A)p.r(G)p.r(C)p.r(U)p.r(C)p.r(G)p.r(C)p.r(G)p.r(G)p.d(C)p.d(A)}$$$RNA1{StrandType:ss}|RNA2{StrandType:as}$
Second: RNA1{r(C)p.r(C)p.r(G)p.r(C)p.r(U)p.r(A)p.r(C)p.r(G)p.r(U)p.r(G)p.r(A)p.r(C)p.r(C)p.r(G)p.r(A)p.r(U)p.r(G)p.r(G)p.r(G)p.d(T)p.d(T)}|RNA2{r(C)p.r(C)p.r(C)p.r(A)p.r(U)p.r(C)p.r(G)p.r(G)p.r(U)p.r(C)p.r(A)p.r(C)p.r(G)p.r(U)p.r(A)p.r(G)p.r(C)p.r(G)p.r(G)p.d(G)p.d(T)}$$$RNA1{StrandType:ss}|RNA2{StrandType:as}$
The normalised inhibition (eCFP-eYFP dual reporter) of the first is higher: 66.8% for the first, 64.7% for the second.

Going from “RNA1{r(C)p.r(C)p.r(G)p.r(G)p.r(U)p.r(G)p.r(G)p.r(U)p.r(G)p.r(A)p.r(G)p.r(G)p.r(C)p.r(G)p.r(C)p.r(C)p.r(G)p.r(C)p.r(G)p.d(T)p.d(T)}|RNA2{r(C)p.r(G)p.r(C)p.r(G)p.r(G)p.r(C)p.r(G)p.r(C)p.r(C)p.r(U)p.r(C)p.r(A)p.r(C)p.r(C)p.r(A)p.r(C)p.r(C)p.r(G)p.r(G)p.d(G)p.d(A)}$$$RNA1{StrandType:ss}|RNA2{StrandType:as}$” to “RNA1{r(C)p.r(C)p.r(G)p.r(U)p.r(G)p.r(C)p.r(C)p.r(G)p.r(C)p.r(A)p.r(G)p.r(C)p.r(G)p.r(C)p.r(C)p.r(A)p.r(A)p.r(G)p.r(C)p.d(T)p.d(T)}|RNA2{r(G)p.r(C)p.r(U)p.r(U)p.r(G)p.r(G)p.r(C)p.r(G)p.r(C)p.r(U)p.r(G)p.r(C)p.r(G)p.r(G)p.r(C)p.r(A)p.r(C)p.r(G)p.r(G)p.d(C)p.d(C)}$$$RNA1{StrandType:ss}|RNA2{StrandType:as}$”, the normalised inhibition (eCFP-eYFP dual reporter) rises from 35.8% to 50.5%.

Going from “RNA1{r(C)p.r(C)p.r(G)p.r(U)p.r(G)p.r(U)p.r(A)p.r(G)p.r(U)p.r(G)p.r(G)p.r(A)p.r(G)p.r(G)p.r(G)p.r(C)p.r(C)p.r(A)p.r(G)p.d(T)p.d(T)}|RNA2{r(C)p.r(U)p.r(G)p.r(G)p.r(C)p.r(C)p.r(C)p.r(U)p.r(C)p.r(C)p.r(A)p.r(C)p.r(U)p.r(A)p.r(C)p.r(A)p.r(C)p.r(G)p.r(G)p.d(A)p.d(A)}$$$RNA1{StrandType:ss}|RNA2{StrandType:as}$” to “RNA1{r(C)p.r(C)p.r(U)p.r(C)p.r(C)p.r(A)p.r(C)p.r(C)p.r(G)p.r(G)p.r(A)p.r(G)p.r(C)p.r(U)p.r(G)p.r(G)p.r(A)p.r(G)p.r(A)p.d(T)p.d(T)}|RNA2{r(U)p.r(C)p.r(U)p.r(C)p.r(C)p.r(A)p.r(G)p.r(C)p.r(U)p.r(C)p.r(C)p.r(G)p.r(G)p.r(U)p.r(G)p.r(G)p.r(A)p.r(G)p.r(G)p.d(C)p.d(T)}$$$RNA1{StrandType:ss}|RNA2{StrandType:as}$”, the normalised inhibition (eCFP-eYFP dual reporter) rises from 55.2% to 68.8%.

First: RNA1{r(C)p.r(G)p.r(A)p.r(U)p.r(G)p.r(G)p.r(G)p.r(C)p.r(C)p.r(G)p.r(U)p.r(G)p.r(C)p.r(C)p.r(G)p.r(C)p.r(A)p.r(G)p.r(C)p.d(T)p.d(T)}|RNA2{r(G)p.r(C)p.r(U)p.r(G)p.r(C)p.r(G)p.r(G)p.r(C)p.r(A)p.r(C)p.r(G)p.r(G)p.r(C)p.r(C)p.r(C)p.r(A)p.r(U)p.r(C)p.r(G)p.d(G)p.d(T)}$$$RNA1{StrandType:ss}|RNA2{StrandType:as}$
Second: RNA1{r(C)p.r(G)p.r(C)p.r(C)p.r(A)p.r(A)p.r(G)p.r(C)p.r(C)p.r(G)p.r(G)p.r(U)p.r(C)p.r(A)p.r(C)p.r(C)p.r(G)p.r(A)p.r(G)p.d(T)p.d(T)}|RNA2{r(C)p.r(U)p.r(C)p.r(G)p.r(G)p.r(U)p.r(G)p.r(A)p.r(C)p.r(C)p.r(G)p.r(G)p.r(C)p.r(U)p.r(U)p.r(G)p.r(G)p.r(C)p.r(G)p.d(C)p.d(T)}$$$RNA1{StrandType:ss}|RNA2{StrandType:as}$
The normalised inhibition (eCFP-eYFP dual reporter) of the first is lower: 51% for the first, 59.1% for the second.

Going from “RNA1{r(C)p.r(G)p.r(C)p.r(C)p.r(U)p.r(G)p.r(C)p.r(U)p.r(G)p.r(C)p.r(C)p.r(C)p.r(A)p.r(A)p.r(C)p.r(G)p.r(C)p.r(C)p.r(A)p.d(T)p.d(T)}|RNA2{r(U)p.r(G)p.r(G)p.r(C)p.r(G)p.r(U)p.r(U)p.r(G)p.r(G)p.r(G)p.r(C)p.r(A)p.r(G)p.r(C)p.r(A)p.r(G)p.r(G)p.r(C)p.r(G)p.d(C)p.d(G)}$$$RNA1{StrandType:ss}|RNA2{StrandType:as}$” to “RNA1{r(C)p.r(G)p.r(C)p.r(G)p.r(A)p.r(G)p.r(C)p.r(U)p.r(G)p.r(C)p.r(A)p.r(C)p.r(U)p.r(U)p.r(C)p.r(A)p.r(C)p.r(C)p.r(C)p.d(T)p.d(T)}|RNA2{r(G)p.r(G)p.r(G)p.r(U)p.r(G)p.r(A)p.r(A)p.r(G)p.r(U)p.r(G)p.r(C)p.r(A)p.r(G)p.r(C)p.r(U)p.r(C)p.r(G)p.r(C)p.r(G)p.d(G)p.d(C)}$$$RNA1{StrandType:ss}|RNA2{StrandType:as}$”, the normalised inhibition (eCFP-eYFP dual reporter) falls from 64.6% to 54.8%.

First: RNA1{r(C)p.r(G)p.r(C)p.r(G)p.r(C)p.r(G)p.r(C)p.r(G)p.r(C)p.r(G)p.r(C)p.r(A)p.r(A)p.r(G)p.r(G)p.r(U)p.r(G)p.r(C)p.r(G)p.d(T)p.d(T)}|RNA2{r(C)p.r(G)p.r(C)p.r(A)p.r(C)p.r(C)p.r(U)p.r(U)p.r(G)p.r(C)p.r(G)p.r(C)p.r(G)p.r(C)p.r(G)p.r(C)p.r(G)p.r(C)p.r(G)p.d(G)p.d(C)}$$$RNA1{StrandType:ss}|RNA2{StrandType:as}$
Second: RNA1{r(C)p.r(G)p.r(G)p.r(C)p.r(G)p.r(C)p.r(G)p.r(C)p.r(C)p.r(U)p.r(G)p.r(C)p.r(U)p.r(G)p.r(C)p.r(C)p.r(C)p.r(A)p.r(A)p.d(T)p.d(T)}|RNA2{r(U)p.r(U)p.r(G)p.r(G)p.r(G)p.r(C)p.r(A)p.r(G)p.r(C)p.r(A)p.r(G)p.r(G)p.r(C)p.r(G)p.r(C)p.r(G)p.r(C)p.r(C)p.r(G)p.d(G)p.d(G)}$$$RNA1{StrandType:ss}|RNA2{StrandType:as}$
The normalised inhibition (eCFP-eYFP dual reporter) of the first is lower: 60.6% for the first, 84.6% for the second.

Compared with “RNA1{r(C)p.r(G)p.r(G)p.r(U)p.r(C)p.r(A)p.r(C)p.r(C)p.r(G)p.r(A)p.r(G)p.r(C)p.r(U)p.r(G)p.r(G)p.r(U)p.r(G)p.r(U)p.r(G)p.d(T)p.d(T)}|RNA2{r(C)p.r(A)p.r(C)p.r(A)p.r(C)p.r(C)p.r(A)p.r(G)p.r(C)p.r(U)p.r(C)p.r(G)p.r(G)p.r(U)p.r(G)p.r(A)p.r(C)p.r(C)p.r(G)p.d(G)p.d(C)}$$$RNA1{StrandType:ss}|RNA2{StrandType:as}$”, “RNA1{r(C)p.r(G)p.r(U)p.r(G)p.r(U)p.r(A)p.r(G)p.r(U)p.r(G)p.r(G)p.r(A)p.r(G)p.r(G)p.r(G)p.r(C)p.r(C)p.r(A)p.r(G)p.r(G)p.d(T)p.d(T)}|RNA2{r(C)p.r(C)p.r(U)p.r(G)p.r(G)p.r(C)p.r(C)p.r(C)p.r(U)p.r(C)p.r(C)p.r(A)p.r(C)p.r(U)p.r(A)p.r(C)p.r(A)p.r(C)p.r(G)p.d(G)p.d(A)}$$$RNA1{StrandType:ss}|RNA2{StrandType:as}$” is higher in normalised inhibition (eCFP-eYFP dual reporter): 52.2% for the first, 60.7% for the second.

Compared with “RNA1{r(C)p.r(G)p.r(U)p.r(G)p.r(U)p.r(C)p.r(C)p.r(G)p.r(A)p.r(G)p.r(U)p.r(A)p.r(C)p.r(A)p.r(G)p.r(C)p.r(U)p.r(G)p.r(C)p.d(T)p.d(T)}|RNA2{r(G)p.r(C)p.r(A)p.r(G)p.r(C)p.r(U)p.r(G)p.r(U)p.r(A)p.r(C)p.r(U)p.r(C)p.r(G)p.r(G)p.r(A)p.r(C)p.r(A)p.r(C)p.r(G)p.d(T)p.d(C)}$$$RNA1{StrandType:ss}|RNA2{StrandType:as}$”, “RNA1{r(C)p.r(U)p.r(A)p.r(C)p.r(C)p.r(G)p.r(C)p.r(G)p.r(C)p.r(G)p.r(C)p.r(A)p.r(G)p.r(C)p.r(G)p.r(C)p.r(G)p.r(U)p.r(G)p.d(T)p.d(T)}|RNA2{r(C)p.r(A)p.r(C)p.r(G)p.r(C)p.r(G)p.r(C)p.r(U)p.r(G)p.r(C)p.r(G)p.r(C)p.r(G)p.r(C)p.r(G)p.r(G)p.r(U)p.r(A)p.r(G)p.d(C)p.d(G)}$$$RNA1{StrandType:ss}|RNA2{StrandType:as}$” is lower in normalised inhibition (eCFP-eYFP dual reporter): 54.8% for the first, 50.5% for the second.

Compared with “RNA1{r(C)p.r(U)p.r(C)p.r(A)p.r(A)p.r(G)p.r(G)p.r(A)p.r(C)p.r(U)p.r(U)p.r(C)p.r(G)p.r(G)p.r(G)p.r(A)p.r(C)p.r(C)p.r(G)p.d(T)p.d(T)}|RNA2{r(C)p.r(G)p.r(G)p.r(U)p.r(C)p.r(C)p.r(C)p.r(G)p.r(A)p.r(A)p.r(G)p.r(U)p.r(C)p.r(C)p.r(U)p.r(U)p.r(G)p.r(A)p.r(G)p.d(C)p.d(T)}$$$RNA1{StrandType:ss}|RNA2{StrandType:as}$”, “RNA1{r(C)p.r(U)p.r(C)p.r(G)p.r(G)p.r(A)p.r(G)p.r(A)p.r(G)p.r(U)p.r(A)p.r(C)p.r(C)p.r(C)p.r(C)p.r(G)p.r(A)p.r(G)p.r(C)p.d(T)p.d(T)}|RNA2{r(G)p.r(C)p.r(U)p.r(C)p.r(G)p.r(G)p.r(G)p.r(G)p.r(U)p.r(A)p.r(C)p.r(U)p.r(C)p.r(U)p.r(C)p.r(C)p.r(G)p.r(A)p.r(G)p.d(C)p.d(T)}$$$RNA1{StrandType:ss}|RNA2{StrandType:as}$” is lower in normalised inhibition (eCFP-eYFP dual reporter): 62.6% for the first, 44.4% for the second.

First: RNA1{r(C)p.r(U)p.r(G)p.r(G)p.r(U)p.r(G)p.r(G)p.r(C)p.r(C)p.r(U)p.r(C)p.r(G)p.r(U)p.r(G)p.r(C)p.r(A)p.r(A)p.r(G)p.r(U)p.d(T)p.d(T)}|RNA2{r(A)p.r(C)p.r(U)p.r(U)p.r(G)p.r(C)p.r(A)p.r(C)p.r(G)p.r(A)p.r(G)p.r(G)p.r(C)p.r(C)p.r(A)p.r(C)p.r(C)p.r(A)p.r(G)p.d(G)p.d(C)}$$$RNA1{StrandType:ss}|RNA2{StrandType:as}$
Second: RNA1{r(C)p.r(U)p.r(U)p.r(C)p.r(A)p.r(C)p.r(C)p.r(C)p.r(G)p.r(C)p.r(U)p.r(A)p.r(C)p.r(G)p.r(U)p.r(G)p.r(A)p.r(C)p.r(C)p.d(T)p.d(T)}|RNA2{r(G)p.r(G)p.r(U)p.r(C)p.r(A)p.r(C)p.r(G)p.r(U)p.r(A)p.r(G)p.r(C)p.r(G)p.r(G)p.r(G)p.r(U)p.r(G)p.r(A)p.r(A)p.r(G)p.d(T)p.d(G)}$$$RNA1{StrandType:ss}|RNA2{StrandType:as}$
The normalised inhibition (eCFP-eYFP dual reporter) of the first is lower: 52.5% for the first, 59.4% for the second.

Reference: the OligoGym collection
